Assay results published in patent publication US20230330278A1, “METHODS FOR RADIOLABELLING PSMA BINDING LIGANDS AND THEIR KITS” (Novartis AG, priority 2020, published 2023).

Experiments:
[1] = Radiochemical purity and stability of 68GaPSMA-R2 by HPLC; format: physicochemical; conditions: for stability to the radiolytic degradation / radiochemical purity: up to 4 hours; for stability to the radiolytic degradation: without gentisic acid; for radiochemical purity: without the gentisic acid
Experimental: Radiochemical purity and identification of ^68GaPSMA-R2 by HPLC
Chromatographic conditions
The molecule was labelled with ^68Ga using E&Z generator with an activity in the range of […]. The labelling was performed at 95° C. for 7 minutes with Gallium buffer (pH 3.2-3.8). Experiments were performed by testing different amount of gentisic acid as radiolytic scavenger and peptide amounts (15 μg and 30 μg). In all tests 20 mg of mannitol were added as cake forming.

tumor models = conditions: current specific activity
[2] = cited from earlier work

Structure (SMILES) | stability to the radiolytic degradation [1] | stability to the radiolytic degradation ([1]; listed as 68Ga-PSMA-R2) | radiochemical purity [1] | radiochemical purity ([1]; listed as 68Ga-PSMA-R2) | 68Ga free ([1]; when gentisic acid is not used in the formulation) | biodistribution profile (tumor models) | pKa (20° C.) [2]
O=C([O-])CN1CCN(CC(=O)[O-])CCN(CC(=O)NCCCCCC(=O)N(CCCC[C@H](NC(=O)N[C@@H](CCC(=O)O)C(=O)O)C(=O)O)Cc2ccc(Br)cc2)CCN(CC(=O)[O-])CC1.[68Ga+3] [68GaPSMA-R2] | good stability to the radiolytic degradation | intrinsic stability to the radiolytic degradation | higher than 92% | over 92% | under 2% | favourable biodistribution profile in tumor models (major uptake in tumor and kidneys, relatively low uptake in other organs) | –
O=C(O)CCC(=O)O [Succinic acid] | – | – | – | – | – | – | 4.22
